Consider three molecules from paper PMC4685510, “A Cell Biologist’s Field Guide to Aurora Kinase Inhibitors” (Frontiers in Oncology, 2015).

Common to all, as to test: biochemical
Common to all, as to assay type: biochemical

Experiment [1] deals with 363 human kinases (including Aurora A/B/C) (Homo sapiens, UniProt O14578). The note with it: STK21/CIT; for remaining activity at 0.5 µM / remaining activity at 0.1 µM: read-out: % Enzyme Activity (relative to DMSO controls); for remaining activity at 0.1 µM: 100 nM.
Description: (§1) However, the Aurora A/B selectivity ratios derived from our in vitro and in vivo data can be compared to prioritize inhibitors.
The target of experiment [2] is 363 human kinases (including Aurora A/B/C) (Homo sapiens, UniProt O94804). The note with it: LOK/STK10; for remaining activity at 0.5 µM / remaining activity at 0.1 µM: read-out: % Enzyme Activity (relative to DMSO controls); for remaining activity at 0.1 µM: 100 nM.
Description: as §1
The target of experiment [3] is 363 human kinases (including Aurora A/B/C) (Homo sapiens, UniProt P05129). The note with it: PKCg; for remaining activity at 0.5 µM / remaining activity at 0.1 µM: read-out: % Enzyme Activity (relative to DMSO controls); for remaining activity at 0.1 µM: 100 nM.
Description: as §1
Experiment [4] addresses 363 human kinases (including Aurora A/B/C) (Homo sapiens, UniProt P07333). Conditions: FMS; for remaining activity at 0.5 µM / remaining activity at 0.1 µM: read-out: % Enzyme Activity (relative to DMSO controls); for remaining activity at 0.1 µM: 100 nM.
Description: as §1
The target of experiment [5] is 363 human kinases (including Aurora A/B/C) (Homo sapiens, UniProt P08069). Conditions: IGF1R; for remaining activity at 0.5 µM / remaining activity at 0.1 µM: read-out: % Enzyme Activity (relative to DMSO controls); for remaining activity at 0.1 µM: 100 nM.
Description: as §1
In experiment [6] the target is 363 human kinases (including Aurora A/B/C) (Homo sapiens, UniProt P08922). Conditions: ROS/ROS1; for remaining activity at 0.5 µM / remaining activity at 0.1 µM: read-out: % Enzyme Activity (relative to DMSO controls); for remaining activity at 0.1 µM: 100 nM.
Description: as §1
Experiment [7] has as its target 363 human kinases (including Aurora A/B/C) (Homo sapiens, UniProt P15056). The note with it: BRAF, [ATP] 10 µM; for remaining activity at 0.5 µM / remaining activity at 0.1 µM: read-out: % Enzyme Activity (relative to DMSO controls); for remaining activity at 0.1 µM: 100 nM.
Description: as §1
Experiment [8] deals with 363 human kinases (including Aurora A/B/C) (Homo sapiens, UniProt P17612). Conditions: PKA; for remaining activity at 0.5 µM / remaining activity at 0.1 µM: read-out: % Enzyme Activity (relative to DMSO controls); for remaining activity at 0.1 µM: 100 nM.
Description: as §1
In experiment [9] the target is 363 human kinases (including Aurora A/B/C) (Homo sapiens, UniProt P34947). The note with it: GRK5; for remaining activity at 0.5 µM / remaining activity at 0.1 µM: read-out: % Enzyme Activity (relative to DMSO controls); for remaining activity at 0.1 µM: 100 nM.
Description: as §1
Experiment [10] has as its target T1, 363 human kinases (including Aurora A/B/C) (Homo sapiens, UniProt Q8IVT5).
T1 sequence (Q8IVT5 1-923): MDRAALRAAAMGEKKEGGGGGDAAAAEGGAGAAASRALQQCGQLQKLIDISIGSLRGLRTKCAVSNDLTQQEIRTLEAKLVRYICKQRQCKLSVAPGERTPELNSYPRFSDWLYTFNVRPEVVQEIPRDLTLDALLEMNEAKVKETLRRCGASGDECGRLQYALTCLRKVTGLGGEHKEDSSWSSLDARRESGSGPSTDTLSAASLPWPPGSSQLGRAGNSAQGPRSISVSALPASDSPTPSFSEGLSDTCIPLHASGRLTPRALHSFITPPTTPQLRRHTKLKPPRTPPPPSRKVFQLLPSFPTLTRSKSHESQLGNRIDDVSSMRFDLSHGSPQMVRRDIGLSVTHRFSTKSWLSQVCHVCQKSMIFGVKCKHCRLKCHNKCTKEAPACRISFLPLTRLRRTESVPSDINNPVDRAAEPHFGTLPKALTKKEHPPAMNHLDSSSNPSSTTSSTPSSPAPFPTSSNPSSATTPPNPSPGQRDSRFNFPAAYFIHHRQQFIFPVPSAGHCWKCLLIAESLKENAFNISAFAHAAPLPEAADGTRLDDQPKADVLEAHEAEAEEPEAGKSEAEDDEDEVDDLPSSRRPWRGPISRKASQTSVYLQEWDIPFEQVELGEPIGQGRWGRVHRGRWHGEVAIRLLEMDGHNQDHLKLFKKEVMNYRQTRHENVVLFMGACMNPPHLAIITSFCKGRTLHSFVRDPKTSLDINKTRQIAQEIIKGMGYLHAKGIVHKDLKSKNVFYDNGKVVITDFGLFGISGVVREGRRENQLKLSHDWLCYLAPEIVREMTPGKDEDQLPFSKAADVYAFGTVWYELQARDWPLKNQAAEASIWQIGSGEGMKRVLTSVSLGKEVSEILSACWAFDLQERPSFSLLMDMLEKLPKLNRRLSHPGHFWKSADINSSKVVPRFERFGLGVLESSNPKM
The note with it: KSR1; for remaining activity at 0.5 µM / remaining activity at 0.1 µM: read-out: % Enzyme Activity (relative to DMSO controls); for remaining activity at 0.1 µM: 100 nM.
Description: as §1

For experiment [11], the target named is T2, 363 human kinases (including Aurora A/B/C) (Homo sapiens, UniProt Q96KB5).
T2 sequence (Q96KB5 1-322): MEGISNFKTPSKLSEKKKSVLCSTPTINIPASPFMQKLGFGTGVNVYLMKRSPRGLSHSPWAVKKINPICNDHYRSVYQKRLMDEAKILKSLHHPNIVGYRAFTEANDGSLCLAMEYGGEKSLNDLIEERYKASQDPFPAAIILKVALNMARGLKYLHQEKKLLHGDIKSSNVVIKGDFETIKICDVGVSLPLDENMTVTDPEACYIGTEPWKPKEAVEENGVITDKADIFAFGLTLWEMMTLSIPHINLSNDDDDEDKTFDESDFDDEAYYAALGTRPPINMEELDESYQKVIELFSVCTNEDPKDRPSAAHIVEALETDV
Conditions: PBK/TOPK; for remaining activity at 0.5 µM / remaining activity at 0.1 µM: read-out: % Enzyme Activity (relative to DMSO controls); for remaining activity at 0.1 µM: 100 nM.
Description: as §1

Experiment [12] has as its target 363 human kinases (including Aurora A/B/C) (Homo sapiens, UniProt Q9NYY3). The note with it: PLK2; for remaining activity at 0.5 µM / remaining activity at 0.1 µM: read-out: % Enzyme Activity (relative to DMSO controls); for remaining activity at 0.1 µM: 100 nM.
Description: as §1
Experiment [13] has as its target 363 human kinases (including Aurora A/B/C) (Homo sapiens, UniProt Q9Y572). The note with it: RIPK3; for remaining activity at 0.5 µM / remaining activity at 0.1 µM: read-out: % Enzyme Activity (relative to DMSO controls); for remaining activity at 0.1 µM: 100 nM.
Description: as §1

Chain of 363 human kinases (including Aurora A/B/C) (Homo sapiens, UniProt P08069) (P08069 31-1367): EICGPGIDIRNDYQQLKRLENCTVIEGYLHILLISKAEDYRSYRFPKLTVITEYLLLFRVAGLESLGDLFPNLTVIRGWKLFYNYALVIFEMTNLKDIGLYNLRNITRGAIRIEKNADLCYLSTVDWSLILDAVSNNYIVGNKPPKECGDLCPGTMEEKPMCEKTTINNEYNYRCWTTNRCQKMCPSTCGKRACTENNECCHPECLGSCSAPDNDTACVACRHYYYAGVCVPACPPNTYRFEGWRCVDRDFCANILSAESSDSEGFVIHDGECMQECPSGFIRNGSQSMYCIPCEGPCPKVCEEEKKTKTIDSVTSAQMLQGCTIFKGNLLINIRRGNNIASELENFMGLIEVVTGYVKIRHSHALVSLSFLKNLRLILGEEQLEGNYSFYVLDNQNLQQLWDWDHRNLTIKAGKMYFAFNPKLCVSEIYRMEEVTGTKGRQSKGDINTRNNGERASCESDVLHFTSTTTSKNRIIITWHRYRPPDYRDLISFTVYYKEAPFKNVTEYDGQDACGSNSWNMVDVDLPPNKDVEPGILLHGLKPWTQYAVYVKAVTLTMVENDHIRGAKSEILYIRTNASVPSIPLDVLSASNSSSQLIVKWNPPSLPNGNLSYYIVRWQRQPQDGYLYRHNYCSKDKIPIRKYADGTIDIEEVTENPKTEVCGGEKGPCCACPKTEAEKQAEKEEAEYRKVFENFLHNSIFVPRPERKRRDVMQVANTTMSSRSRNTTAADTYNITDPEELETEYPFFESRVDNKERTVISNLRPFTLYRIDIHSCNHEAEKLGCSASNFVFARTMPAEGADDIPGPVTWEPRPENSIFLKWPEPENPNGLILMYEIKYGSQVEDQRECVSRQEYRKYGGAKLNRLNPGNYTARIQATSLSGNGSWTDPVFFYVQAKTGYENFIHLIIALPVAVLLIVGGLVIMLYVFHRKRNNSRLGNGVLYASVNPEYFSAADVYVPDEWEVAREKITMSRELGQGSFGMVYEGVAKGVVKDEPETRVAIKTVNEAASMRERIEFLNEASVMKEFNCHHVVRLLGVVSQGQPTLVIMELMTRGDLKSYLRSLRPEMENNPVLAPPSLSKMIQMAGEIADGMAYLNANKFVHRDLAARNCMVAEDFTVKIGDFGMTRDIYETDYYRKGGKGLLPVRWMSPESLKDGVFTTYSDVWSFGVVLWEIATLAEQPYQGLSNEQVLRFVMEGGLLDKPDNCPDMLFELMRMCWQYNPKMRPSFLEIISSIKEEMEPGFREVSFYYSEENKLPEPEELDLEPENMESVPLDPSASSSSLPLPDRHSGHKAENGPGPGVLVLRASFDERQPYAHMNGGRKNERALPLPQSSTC
Chain of 363 human kinases (including Aurora A/B/C) (Homo sapiens, UniProt P15056) (P15056 whole entry): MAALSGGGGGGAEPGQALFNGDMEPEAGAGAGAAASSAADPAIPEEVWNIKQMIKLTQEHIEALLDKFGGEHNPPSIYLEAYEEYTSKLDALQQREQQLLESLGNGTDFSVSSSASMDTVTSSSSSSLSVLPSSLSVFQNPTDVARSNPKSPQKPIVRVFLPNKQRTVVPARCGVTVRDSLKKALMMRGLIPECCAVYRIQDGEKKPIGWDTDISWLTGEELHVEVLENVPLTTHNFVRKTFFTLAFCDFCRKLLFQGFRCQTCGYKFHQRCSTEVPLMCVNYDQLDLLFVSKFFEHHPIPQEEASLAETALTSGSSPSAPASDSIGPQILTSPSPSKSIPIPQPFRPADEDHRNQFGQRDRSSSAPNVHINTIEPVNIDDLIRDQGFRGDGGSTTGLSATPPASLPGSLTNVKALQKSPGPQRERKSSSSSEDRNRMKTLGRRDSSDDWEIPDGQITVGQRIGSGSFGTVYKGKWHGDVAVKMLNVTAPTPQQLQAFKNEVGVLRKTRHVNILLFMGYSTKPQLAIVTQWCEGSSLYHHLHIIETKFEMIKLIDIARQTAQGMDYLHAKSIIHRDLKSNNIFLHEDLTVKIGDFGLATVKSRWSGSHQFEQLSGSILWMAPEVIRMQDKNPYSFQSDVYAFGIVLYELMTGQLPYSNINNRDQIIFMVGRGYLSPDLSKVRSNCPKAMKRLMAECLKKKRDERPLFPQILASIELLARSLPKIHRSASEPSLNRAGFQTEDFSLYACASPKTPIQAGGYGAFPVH
Chain of 363 human kinases (including Aurora A/B/C) (Homo sapiens, UniProt O14578) (O14578 whole entry): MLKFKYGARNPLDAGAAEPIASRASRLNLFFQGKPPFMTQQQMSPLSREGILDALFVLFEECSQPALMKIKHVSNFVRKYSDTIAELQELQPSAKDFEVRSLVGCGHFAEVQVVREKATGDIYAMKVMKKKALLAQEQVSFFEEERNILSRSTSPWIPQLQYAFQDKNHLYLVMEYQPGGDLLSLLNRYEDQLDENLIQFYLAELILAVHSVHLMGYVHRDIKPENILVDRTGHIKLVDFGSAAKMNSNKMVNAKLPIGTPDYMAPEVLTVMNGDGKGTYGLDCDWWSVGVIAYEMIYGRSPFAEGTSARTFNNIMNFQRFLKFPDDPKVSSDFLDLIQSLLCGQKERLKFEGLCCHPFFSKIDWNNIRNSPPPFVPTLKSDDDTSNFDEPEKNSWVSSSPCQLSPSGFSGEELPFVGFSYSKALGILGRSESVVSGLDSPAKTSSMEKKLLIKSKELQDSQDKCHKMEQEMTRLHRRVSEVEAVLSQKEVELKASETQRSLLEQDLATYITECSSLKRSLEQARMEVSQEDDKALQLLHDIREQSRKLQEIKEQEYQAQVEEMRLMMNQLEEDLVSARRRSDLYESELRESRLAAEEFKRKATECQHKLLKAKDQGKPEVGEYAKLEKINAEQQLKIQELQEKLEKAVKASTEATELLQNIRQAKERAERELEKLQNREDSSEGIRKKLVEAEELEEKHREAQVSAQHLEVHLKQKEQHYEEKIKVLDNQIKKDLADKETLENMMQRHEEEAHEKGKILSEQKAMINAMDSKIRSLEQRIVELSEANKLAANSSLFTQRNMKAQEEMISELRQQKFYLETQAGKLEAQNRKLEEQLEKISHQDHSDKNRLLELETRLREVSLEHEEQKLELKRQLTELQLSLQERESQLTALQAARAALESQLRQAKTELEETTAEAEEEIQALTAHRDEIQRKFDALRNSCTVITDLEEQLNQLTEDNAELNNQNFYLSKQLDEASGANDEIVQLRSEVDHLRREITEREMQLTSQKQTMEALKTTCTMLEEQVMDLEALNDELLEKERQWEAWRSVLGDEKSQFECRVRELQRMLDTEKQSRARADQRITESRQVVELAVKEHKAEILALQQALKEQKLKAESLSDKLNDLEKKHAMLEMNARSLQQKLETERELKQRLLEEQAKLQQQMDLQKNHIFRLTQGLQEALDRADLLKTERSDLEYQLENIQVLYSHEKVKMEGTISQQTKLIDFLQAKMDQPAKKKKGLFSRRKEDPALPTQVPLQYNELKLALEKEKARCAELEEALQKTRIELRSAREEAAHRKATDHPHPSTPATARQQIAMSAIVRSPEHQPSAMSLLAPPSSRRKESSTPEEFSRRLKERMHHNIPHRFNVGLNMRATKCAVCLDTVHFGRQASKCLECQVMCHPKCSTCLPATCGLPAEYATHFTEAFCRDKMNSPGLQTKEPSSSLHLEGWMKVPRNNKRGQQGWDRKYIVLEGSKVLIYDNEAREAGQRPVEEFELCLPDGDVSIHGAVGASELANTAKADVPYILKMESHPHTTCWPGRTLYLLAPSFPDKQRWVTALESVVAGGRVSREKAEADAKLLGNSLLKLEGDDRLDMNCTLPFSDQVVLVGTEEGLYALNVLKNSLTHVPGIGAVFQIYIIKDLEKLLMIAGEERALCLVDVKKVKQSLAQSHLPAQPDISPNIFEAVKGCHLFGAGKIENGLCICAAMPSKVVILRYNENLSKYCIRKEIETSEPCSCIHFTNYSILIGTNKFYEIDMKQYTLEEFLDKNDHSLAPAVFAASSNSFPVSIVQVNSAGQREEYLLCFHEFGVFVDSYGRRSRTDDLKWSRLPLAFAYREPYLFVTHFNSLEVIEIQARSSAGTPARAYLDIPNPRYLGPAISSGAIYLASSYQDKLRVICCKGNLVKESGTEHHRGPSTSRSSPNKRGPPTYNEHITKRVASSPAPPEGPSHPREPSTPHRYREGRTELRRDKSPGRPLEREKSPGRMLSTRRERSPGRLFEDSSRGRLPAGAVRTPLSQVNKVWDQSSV
Chain of 363 human kinases (including Aurora A/B/C) (Homo sapiens, UniProt P07333) (P07333 20-972): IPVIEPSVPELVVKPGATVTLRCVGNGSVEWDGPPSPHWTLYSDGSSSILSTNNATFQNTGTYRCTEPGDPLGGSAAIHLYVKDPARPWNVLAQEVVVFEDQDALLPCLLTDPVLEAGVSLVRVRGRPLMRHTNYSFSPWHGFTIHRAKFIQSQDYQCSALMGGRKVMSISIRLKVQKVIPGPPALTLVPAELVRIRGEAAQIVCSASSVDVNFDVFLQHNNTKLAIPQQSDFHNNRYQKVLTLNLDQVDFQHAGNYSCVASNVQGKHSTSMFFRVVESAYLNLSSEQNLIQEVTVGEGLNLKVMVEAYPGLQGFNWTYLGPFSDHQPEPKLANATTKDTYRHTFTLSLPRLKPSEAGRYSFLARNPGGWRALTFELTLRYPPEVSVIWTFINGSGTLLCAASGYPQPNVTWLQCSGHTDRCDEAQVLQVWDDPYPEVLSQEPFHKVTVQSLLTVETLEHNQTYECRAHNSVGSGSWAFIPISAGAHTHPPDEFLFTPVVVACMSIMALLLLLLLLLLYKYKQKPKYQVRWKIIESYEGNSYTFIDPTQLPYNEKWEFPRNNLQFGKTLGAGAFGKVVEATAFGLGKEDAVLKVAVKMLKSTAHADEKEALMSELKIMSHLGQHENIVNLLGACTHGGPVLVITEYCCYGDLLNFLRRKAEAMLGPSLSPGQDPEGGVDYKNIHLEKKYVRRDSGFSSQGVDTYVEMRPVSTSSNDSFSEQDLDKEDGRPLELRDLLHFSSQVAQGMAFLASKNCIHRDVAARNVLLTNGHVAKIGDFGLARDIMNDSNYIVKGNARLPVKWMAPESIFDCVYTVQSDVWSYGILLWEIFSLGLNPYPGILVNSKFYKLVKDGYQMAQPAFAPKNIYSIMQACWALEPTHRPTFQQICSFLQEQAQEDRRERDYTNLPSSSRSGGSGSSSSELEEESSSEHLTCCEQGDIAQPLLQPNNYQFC

`O=C(c1cccc(Cl)c1F)N1CCN(Cc2cccc(Nc3nccs3)n2)CC1` [MK-8745]: the “% Enzyme Activity (relative to DMSO controls)” value in experiment [1] (500 nM) stood at 101.37%; in experiment [2] (500 nM), 49.80%; in experiment [3] (500 nM), 90.37%; in experiment [4] (500 nM), 92.34%; in experiment [5] (500 nM), 65.00%; in experiment [6] (500 nM), 3.19%. The “% Enzyme Activity (relative to DMSO controls)” value stood at 94.88% in [7] (500 nM); 96.39% in experiment [8] (500 nM); 94.27% in [9] (500 nM); 92.75% in [10] (500 nM); 91.24% in [11] (500 nM); 81.10% in [12] (500 nM). In addition, in [13] (500 nM), the “% Enzyme Activity (relative to DMSO controls)” value worked out at 90.81%. Besides, the remaining activity at 0.5 µM is 104% in experiment [1] (500 nM); 52.1% in [2] (500 nM); 91.9% in [3] (500 nM); 95% in experiment [4] (500 nM); 66.7% in experiment [5] (500 nM); 3.49% in [6] (500 nM). Also, the remaining activity at 0.5 µM in experiment [7] (500 nM) was 96.1%; in [8] (500 nM), 98.9%; in [9] (500 nM) it was 95.8%; in [10] (500 nM), 93.4%; in [11] (500 nM), 94.4%; in [12] (500 nM) it was 81.9%. In addition, the remaining activity at 0.5 µM in experiment [13] (500 nM) came out at 94.8%.
For the molecule `CCn1cc(-c2ccnc3[nH]c(-c4cccc(CN(C)C)c4)cc23)c(-c2ccc(NC(=O)N(C)C)cc2)n1` [GSK1070916], the remaining activity at 0.1 µM amounted to 100% in [1]; 73.2% in [2]; 82.3% in experiment [3]; 80.2% in experiment [4]; 97.9% in experiment [5]; 102% in [6]. Further, the remaining activity at 0.1 µM is 97.1% in experiment [7]; 95.5% in [8]; 96.3% in experiment [9]; 94.2% in experiment [10]; 97.5% in [11]; 91.2% in experiment [12]. In addition, the remaining activity at 0.1 µM in experiment [13] is 88.3%.
Regarding `O=C(O)[C@]1(Cc2cccc(Nc3nccs3)n2)CC[C@@H](Oc2cccc(Cl)c2F)CC1` [MK-5108], the remaining activity at 0.1 µM in [1] was found to be 115%; in experiment [2], 34%; in [3], 93.7%; in experiment [4] it was 78.2%; in experiment [5] it was 81.1%; in experiment [6], 0.98%. The remaining activity at 0.1 µM in experiment [7] was determined as 103%; in [8] it was 100%; in experiment [9], 102%; in [10] it was 98.6%; in experiment [11], 93.9%; in experiment [12], 88.8%. In [13], the remaining activity at 0.1 µM was 122%. Further, the remaining activity at 0.5 µM in [1] (500 nM) stood at 102%; in experiment [2] (500 nM) it was 10.3%; in experiment [3] (500 nM), 63%; in experiment [4] (500 nM) it was 51.9%; in [5] (500 nM), 43.9%; in experiment [6] (500 nM), 1.15%. In addition, the remaining activity at 0.5 µM in [7] (500 nM) was 94.7%; in experiment [8] (500 nM) it was 96.4%; in experiment [9] (500 nM) it was 90.9%; in experiment [10] (500 nM), 98%; in experiment [11] (500 nM), 95.4%; in experiment [12] (500 nM) it was 85.1%. Besides, in experiment [13] (500 nM), the remaining activity at 0.5 µM was determined as 87.7%.
